Assay: Storage of concentrated MB-102 salt solution at 4° C. (precipitation)
Type: physicochemical
Conditions: 64.2 wt % solution in water, 4° C. for 7 days
Protocol: MB-102 (0.300 g, 0.81 mmol), was placed in a vial (4.0 mL). Water was added (0.8 mL, D.I.) and the mixture sonicated for a brief period of time. To the mixture was added aqueous 6.25 N NaOH (2 equivalents, 1.62 mmol, 0.24 mL, added in portions; 0.020 mL×12 to effect solution) with stirring and brief periods of sonication. […] The final concentration was 300 mg (2R,2′R)-2,2′-((3,6-diaminopyrazine-2,5-dicarbonyl)bis(azanediyl))bis(3-hydroxypropanoic acid), MB-102 per mL water (w/v).
MB-102 (0.30 g, 0.81 mmol) was weighed into a 5 mL v-vial equipped with a Teflon-covered magnetic spin vane. Choline hydroxide in water (Aldrich, 0.43 g of 46 wt %, 1.62 mmol) was added portion-wise with stirring until a solution was obtained. The total weight of the solution was 0.73 g or 64.2 wt % MB-102 di-choline salt (MW: 578.6).

SMILES: C[N+](C)(C)CCO.C[N+](C)(C)CCO.Nc1nc(C(=O)NC(CO)C(=O)[O-])c(N)nc1C(=O)NC(CO)C(=O)[O-] (stereo not shown) [MB-102 di-choline salt]
- precipitation on storage: no precipitation

From patent US20220143222A1, “SUBCUTANEOUS AND INTRAMUSCULAR ADMINISTRATION OF PYRAZINE COMPOUNDS” (MediBeacon Inc., priority 2020, published 2022)
